Results reported in patent US9533983B2, “Antiplatelet agent” (Mitsubishi Tanabe Pharma Corporation, priority 2009, dated 2017).

Key:
[1] = system: Collagen-Induced Platelet Aggregation; experiment: Platelet aggregation inhibitory activity: collagen-induced platelet aggregation in platelet rich plasma; type: cell-based; conditions: Cavia porcellus, guinea pig PRP
Description: (§1) A blood of a guinea pig was sampled by using a 1/10 volume of a 3.8% sodium citrate as a platelet aggregation inhibitor, and a platelet rich plasma (PRP) was separated by centrifuging the blood sample at 1100 rpm for 10 min. After fractionating the PRP in the upper layer, the lower layer was centrifuged at 3000 rpm for 10 min to fractionate the platelet poor plasma (PPP). To 100 μL of PRP, a 1 μL solution of each compound was added, and after still standing at 37° C. for 1 min, the mixture was stirred at 37° C. for 1 min by a stirrer. Then, 11 μL of collagen, ristocetin, or ADP was added thereto to induce the platelet aggregation. The platelet aggregation ability was measured by using the mCM hematolaser 313M (L-M-S Inc.). Based on the assumption that a light transmittance of PPP corresponds to a 100% coagulation value, an aggregation rate at each concentration of the compound was determined, then, an IC50 value was calculated therefrom.
[Platelet Aggregation Inhibitory Activities: Collagen-Induced Platelet Aggregation]

[2] = system: Ristocetin-Induced Platelet Aggregation; experiment: Platelet aggregation inhibitory activity: ristocetin-induced platelet aggregation in platelet rich plasma; type: cell-based; conditions: Cavia porcellus, guinea pig PRP
Description: as §1
[Platelet Aggregation Inhibitory Activities: Ristocetin-Induced Platelet Aggregation]

| Compound | IC50 [1] | IC50 [2] |
| --- | --- | --- |
| COc1ccc(-n2c(-c3nccs3)nc3cc(C(F)(F)F)ccc32)nn1 [Example 54, 1-(6-methoxypyridazin-3-yl)-2-(1,3-thiazol-2-yl)-5-(trifluoromethyl)-1H-benzimidazole] | 190 nM | 100 nM |
| COc1ccc(-n2c(-c3ccccn3)nc3cc(C(F)(F)F)c(Cl)cc32)cn1 [Example 55, 6-chloro-1-(6-methoxypyridin-3-yl)-2-pyridin-2-yl-5-(trifluoromethyl)-1H-benzimidazole] | 84 nM | 60 nM |
| COc1ccc(-n2c(-c3cc(C)ccn3)nc3cc(C(F)(F)F)ccc32)nn1 [Example 58, 1-(6-methoxypyridazin-3-yl)-2-(4-methylpyridin-2-yl)-5-(trifluoromethyl)-1H-benzimidazole] | 170 nM | 280 nM |
| CSc1ccc(-n2c(-c3ccccn3)nc3cc(C(F)(F)F)ccc32)nn1 [Example 67, 1-[6-(methylthio)pyridazin-3-yl]-2-pyridin-2-yl-5-(trifluoromethyl)-1H-benzimidazole] | 170 nM | 230 nM |
| COc1ccc(-n2c(-c3cc(C)on3)nc3cc(C(F)(F)F)ccc32)nn1 [Example 72, 2-(5-methylisoxazol-3-yl)-1-(6-methoxypyridazin-3-yl)-5-(trifluoromethyl)-1H-benzimidazole] | 180 nM | 130 nM |
| COc1ccc(-n2c(-c3ccn(C)n3)nc3cc(C(F)(F)F)cnc32)cn1 [Example 73, 3-(6-methoxypyridin-3-yl)-2-(1-methyl-1H-pyrazol-3-yl)-6-(trifluoromethyl)-3H-imidazo[4,5-b]pyridine] | 80 nM | 83 nM |
| COc1ccc(-n2c(-c3cc(Br)ccn3)nc3cc(C(F)(F)F)ccc32)nn1 [Example 75, 2-(4-bromopyridin-2-yl)-1-(6-methoxypyridazin-3-yl)-5-(trifluoromethyl)-1H-benzimidazole] | 200 nM | 380 nM |
| COc1ccc(-n2c(-c3ncccc3C#N)nc3cc(C(F)(F)F)ccc32)nn1 [Example 81, 2-[1-(6-methoxypyridazin-3-yl)-5-(trifluoromethyl)-1H-benzimidazole-2-yl]nicotinonitrile] | 220 nM | 500 nM |
| COc1ccc(-n2c(-c3csc(C)n3)nc3cc(C(F)(F)F)ccc32)nn1 [Example 94, 1-(6-methoxypyridazin-3-yl)-2-(2-methyl-1,3-thiazol-4-yl)-5-(trifluoromethyl)-1H-benzimidazole] | 190 nM | 100 nM |
| COc1ccc(-n2c(-c3cc(C)on3)nc3cc(C(F)(F)F)cnc32)cn1 [Example 108, 3-(6-methoxypyridin-3-yl)-2-(5-methylisoxazol-3-yl)-6-(trifluoromethyl)-3H-imidazo[4,5-b]pyridine] | 210 nM | 100 nM |
| COc1ccc(-n2c(-c3cscn3)nc3cc(C(F)(F)F)cnc32)cn1 [Example 109, 3-(6-methoxypyridin-3-yl)-2-(1,3-thiazol-4-yl)-6-(trifluoromethyl)-3H-imidazo[4,5-b]pyridine] | 95 nM | 23 nM |
| COc1ccc(-n2c(-c3csc(C)n3)nc3cc(C(F)(F)F)cnc32)cn1 [Example 110, 3-(6-methoxypyridin-3-yl)-2-(2-methyl-1,3-thiazol-4-yl)-6-(trifluoromethyl)-3H-imidazo[4,5-b]pyridine] | 130 nM | 120 nM |
| COc1ccc(-n2c(-c3ncoc3C)nc3cc(C(F)(F)F)cnc32)cn1 [Example 126, 3-(6-methoxypyridin-3-yl)-2-(5-methyl-1,3-oxazol-4-yl)-6-(trifluoromethyl)-3H-imidazo[4,5-b]pyridine] | 194 nM | 90 nM |
| Cc1ccc(-n2c(-c3ccc(C#N)cn3)nc3cc(C(F)(F)F)cnc32)cn1 [Example 130, 6-[3-(6-methylpyridin-3-yl)-6-(trifluoromethyl)-3H-imidazo[4,5-b]pyridin-2-yl]nicotinonitrile] | 177 nM | 170 nM |
| CNc1ccc(-n2c(-c3ccc(C#N)cn3)nc3cc(C(F)(F)F)cnc32)cn1 [Example 150, 6-{3-[6-(methylamino)pyridin-3-yl]-6-(trifluoromethyl)-3H-imidazo[4,5-b]pyridin-2-yl]nicotinonitrile] | 205 nM | 205 nM |
| COc1cnc(-n2c(-c3coc(C)n3)nc3cc(C(F)(F)F)cnc32)cn1 [Example 152, 3-(5-methoxypyrazine-2-yl)-2-(2-methyl-1,3-oxazol-4-yl)-(trifluoromethyl)-3H-imidazo[4,5-b]pyridine] | 86 nM | 86 nM |
| COc1cnc(-n2c(-c3cc(C)on3)nc3cc(C(F)(F)F)cnc32)cn1 [Example 154, 3-(5-methoxypyrazine-2-yl)-2-(5-methylisoxazol-3-yl)-6-(trifluoromethyl)-3H-imidazo[4,5-b]pyridine] | 129 nM | 129 nM |

More lines, now with the values ahead:

| IC50 [1] | IC50 [2] | Compound |
| --- | --- | --- |
| 57 nM | 42 nM | COc1ccc(-n2c(-c3ccc([N+](=O)[O-])cn3)nc3cc(C(F)(F)F)ccc32)nn1 [Example 53, 1-(6-methoxypyridazin-3-yl)-2-(5-nitropyridin-2-yl)-5-(trifluoromethyl)-1H-benzimidazole] |
| 47 nM | 28 nM | CCc1ccc(-c2nc3cc(C(F)(F)F)ccc3n2-c2ccc(OC)nn2)nc1 [Example 56, 2-(5-ethylpyridin-2-yl)-1-(6-methoxypyridazin-3-yl)-5-(trifluoromethyl)-1H-benzimidazole] |
| 53 nM | 70 nM | COc1ccc(-n2c(-c3cscn3)nc3cc(C(F)(F)F)ccc32)nn1 [Example 89, 1-(6-methoxypyridazin-3-yl)-2-(1,3-thiazol-4-yl)-5-(trifluoromethyl)-1H-benzimidazole] |
| 60 nM | 20 nM | COc1ccc(-n2c(-c3cnc(C)cn3)nc3cc(C(F)(F)F)ccc32)nn1 [Example 90, 1-(6-methoxypyridazin-3-yl)-2-(5-methylpyrazine-2-yl)-5-(trifluoromethyl)-1H-benzimidazole] |
| 66 nM | 35 nM | COc1ccc(-n2c(-c3cocn3)nc3cc(C(F)(F)F)cnc32)cn1 [Example 107, 3-(6-methoxypyridin-3-yl)-2-(1,3-oxazol-4-yl)-6-(trifluoromethyl)-3H-imidazo[4,5-b]pyridine] |
| 34 nM | 40 nM | COc1ccc(-n2c(-c3coc(C)n3)nc3cc(C(F)(F)F)cnc32)cn1 [Example 122, 3-(6-methoxypyridin-3-yl)-2-(2-methyl-1,3-oxazol-4-yl)-6-(trifluoromethyl)-3H-imidazo[4,5-b]pyridine] |
| 29 nM | 27 nM | COc1cnc(-n2c(-c3ccccn3)nc3cc(C(F)(F)F)cnc32)cn1 [Example 125, 3-(5-methoxypyrazine-2-yl)-2-pyridin-2-yl-6-(trifluoromethyl)-3H-imidazo[4,5-b]pyridine] |
| 60 nM | 86 nM | COc1ccc(-n2c(-c3coc(C)n3)nc3cc(C(F)(F)F)ccc32)nn1 [Example 139, 1-(6-methoxypyridazin-3-yl)-2-(2-methyl-1,3-oxazol-4-yl)-5-(trifluoromethyl)-1H-benzimidazole] |
| 30 nM | 22 nM | COc1cnc(-n2c(-c3ccc(F)cn3)nc3cc(C(F)(F)F)cnc32)cn1 [Example 144, 2-(5-fluoropyridin-2-yl)-3-(5-methoxypyrazine-2-yl)-6-(trifluoromethyl)-3H-imidazo[4,5-b]pyridine] |
| 74 nM | 106 nM | COc1ccc(-n2c(-c3ccccn3)nc3cc(OC(C)C)cnc32)cn1 [Example 145, 6-isopropoxy-3-(6-methoxypyridin-3-yl)-2-pyridin-2-yl-3H-imidazo[4,5-b]pyridine] |
| 78 nM | 66 nM | COc1ccc(-n2c(-c3ccccn3)nc3cc(OC(F)F)cnc32)cn1 [Example 146, 6-(difluoromethoxy)-3-(6-methoxypyridin-3-yl)-2-pyridin-2-yl-3H-imidazo[4,5-b]pyridine] |
| 24 nM | 24 nM | COc1cnc(-n2c(-c3cocn3)nc3cc(C(F)(F)F)cnc32)cn1 [Example 151, 3-(5-methoxypyrazine-2-yl)-2-(1,3-oxazol-4-yl)-6-(trifluoromethyl)-3H-imidazo[4,5-b]pyridine] |
| 29 nM | 29 nM | COc1ccc(-n2c(-c3cocn3)nc3cc(OC(F)(F)F)ccc32)nn1 [Example 155, 1-(6-methoxypyridazin-3-yl)-2-(1,3-oxazol-4-yl)-5-(trifluoromethoxy)-1H-benzimidazole] |
| 60 nM | 60 nM | COc1ccc(-n2c(-c3coc(C)n3)nc3cc(OC(F)(F)F)ccc32)nn1 [Example 158, 1-(6-methoxypyridazin-3-yl)-2-(2-methyl-1,3-oxazol-4-yl)-5-(trifluoromethoxy)-1H-benzimidazole] |
| 28 nM | 28 nM | COc1ccc(-n2c(-c3ccc(Cl)cn3)nc3cc(C(F)(F)F)cnc32)cn1 [Example 159, 2-(5-chloropyridin-2-yl)-3-(6-methoxypyridin-3-yl)-6-(trifluoromethyl)-3H-imidazo[4,5-b]pyridine] |
| 77 nM | 85 nM | CCCOc1cnc2c(c1)nc(-c1ccccn1)n2-c1ccc(OC)nc1 [Example 173, 3-(6-methoxypyridin-3-yl)-6-propoxy-2-pyridin-2-yl-3H-imidazo[4,5-b]pyridine] |
